Results from the NIST ThermoML archive (doi:10.1021/je1002434).

Experiments:
[1] = for surface tension liquid-gas: Maximal bubble pressure; for mass density: 101 kPa, Liquid, Buoyancy - hydrostatic balance with magnetic suspension - one sinker
[2] = wn = mass fraction of the nth substance listed; conditions: for surface tension liquid-gas: Maximal bubble pressure; for mass density: 101 kPa, Liquid, Buoyancy - hydrostatic balance with magnetic suspension - one sinker

CCCn1cc[n+](C)c1.N[C@@H](CCC(=O)O)C(=O)[O-]
[1]
Conditions | mass density [kg/m3] | surface tension liquid-gas [mN/m]
298.15 K | 1229.2 | 60.8
318.15 K | 1218.6 | 54.7
323.15 K | 1215.9 | 53.2
328.15 K | 1213.2 | 51.8
333.15 K | 1210.6 | 50.1
338.15 K | 1208.2 | 48.7
343.15 K | 1205.3 | –

CCCn1cc[n+](C)c1.N[C@@H](CCC(=O)O)C(=O)[O-] + O
[2]
Conditions | mass density, w2 = 0.00841 [kg/m3] | mass density, w2 = 0.01002 [kg/m3] | mass density, w2 = 0.01126 [kg/m3] | mass density, w2 = 0.01281 [kg/m3] | mass density, w2 = 0.01404 [kg/m3] | surface tension liquid-gas, w2 = 0.0089 [mN/m] | surface tension liquid-gas, w2 = 0.012 [mN/m] | surface tension liquid-gas, w2 = 0.0151 [mN/m] | surface tension liquid-gas, w2 = 0.0192 [mN/m] | surface tension liquid-gas, w2 = 0.0222 [mN/m]
318.15 K | 1204.8 | 1202 | 1200.3 | 1197.4 | 1195.6 | 55.2 | 55.4 | 55.5 | 55.7 | 56
323.15 K | 1202.2 | 1199.3 | 1197.6 | 1194.7 | 1193 | 53.8 | 54 | 54.2 | 54.4 | 54.7
328.15 K | 1199.5 | 1196.7 | 1195 | 1192 | 1190.4 | 52.5 | 52.6 | 52.8 | 53.1 | 53.4
333.15 K | 1196.9 | 1194 | 1192.3 | 1189.4 | 1187.7 | 50.7 | 51.2 | 51.4 | 51.7 | 51.9
338.15 K | 1194.3 | 1191.4 | 1189.6 | 1186.7 | 1185 | 49.4 | 49.9 | 50.2 | 50.4 | 50.7
343.15 K | 1191.6 | 1188.7 | 1187 | 1184.1 | 1182.4 | – | – | – | – | –
